Measurements reported in patent US10894784B2, “Heteroarylbenzimidazole compounds” (BAYER PHARMA AKTIENGESELLSCHAFT, priority 2015, dated 2021).

target: TBK1 (Homo sapiens (Human), UniProt Q9UHD2); test: TBK1 low ATP kinase assay (in vitro assay 1); assay type: biochemical; settings: in vitro assay 1, read-out: TBK1 low ATP kinase assay IC50
Sequence (Q9UHD2 whole entry): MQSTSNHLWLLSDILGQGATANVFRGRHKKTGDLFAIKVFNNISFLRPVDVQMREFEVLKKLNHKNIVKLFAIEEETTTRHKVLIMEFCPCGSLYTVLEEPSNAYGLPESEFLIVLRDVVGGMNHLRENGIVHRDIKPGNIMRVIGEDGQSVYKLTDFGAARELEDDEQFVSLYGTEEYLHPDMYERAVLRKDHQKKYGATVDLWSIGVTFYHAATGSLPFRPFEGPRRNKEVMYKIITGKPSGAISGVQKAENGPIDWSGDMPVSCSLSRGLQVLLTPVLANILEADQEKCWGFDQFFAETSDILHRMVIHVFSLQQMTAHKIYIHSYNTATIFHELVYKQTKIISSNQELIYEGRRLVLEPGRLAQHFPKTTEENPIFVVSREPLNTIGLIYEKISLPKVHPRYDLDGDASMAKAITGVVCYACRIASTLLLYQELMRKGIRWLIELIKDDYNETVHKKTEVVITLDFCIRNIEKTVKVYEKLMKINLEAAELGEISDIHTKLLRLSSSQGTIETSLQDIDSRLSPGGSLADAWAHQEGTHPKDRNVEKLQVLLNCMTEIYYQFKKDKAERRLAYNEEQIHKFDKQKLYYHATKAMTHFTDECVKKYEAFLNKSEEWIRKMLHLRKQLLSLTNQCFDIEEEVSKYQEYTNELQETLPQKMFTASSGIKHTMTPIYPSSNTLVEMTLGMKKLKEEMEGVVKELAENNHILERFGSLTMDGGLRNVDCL

| SMILES | IC50 |
| --- | --- |
| CC(c1ccnc(Nc2nc3ccc(-c4cc(N5CCOCC5)ncn4)cc3[nH]2)c1)N1CCN(C(=O)C2CC2)CC1 (single isomer, unassigned) [Example 118.02, cyclopropyl(4-{(1R or 1S)-1-[2-({6-[6-(morpholin-4-yl)pyrimidin-4-yl]-1H-benzimidazol-2-yl}amino)pyridin-4-yl]ethyl}piperazin-1-yl)methanone] | 3.3 nM |
| CC(c1ccnc(Nc2nc3ccc(-c4cc(N5CCOCC5)ncn4)cc3[nH]2)c1)N1CCN(C(=O)C2(C(F)(F)F)CC2)CC1 (single isomer, unassigned) [Example 118.04, (4-{(1R or 1S)-1-[2-({6-[6-(morpholin-4-yl)pyrimidin-4-yl]-1H-benzimidazol-2-yl}amino)pyridin-4-yl]ethyl}piperazin-1-yl)[1-(trifluoromethyl)cyclopropyl]methanone] | 2.6 nM |
| CC(c1ccnc(Nc2nc3ccc(-c4cc(OCC(F)(F)F)ncn4)cc3[nH]2)c1)N1CCN(C(=O)C2CC2)CC1 (single isomer, unassigned) [Example 119.03, cyclopropyl(4-{(1R or 1S)-1-[2-({6-[6-(2,2,2-trifluoroethoxy)pyrimidin-4-yl]-1H-benzimidazol-2-yl}amino)pyridin-4-yl]ethyl}piperazin-1-yl)methanone] | 5.93 nM |
| CC(c1ccnc(Nc2nc3ccc(-c4cc(OCC(F)(F)F)ncn4)cc3[nH]2)c1)N1CCN(C(=O)C2(C(F)(F)F)CC2)CC1 (single isomer, unassigned) [Example 119.04, (4-{(1R or 1S)-1-[2-({6-[6-(2,2,2-trifluoroethoxy)pyrimidin-4-yl]-1H-benzimidazol-2-yl}amino)pyridin-4-yl]ethyl}piperazin-1-yl)[1-(trifluoromethyl)cyclopropyl]methanone] | 10.9 nM |
| CC(c1ccnc(Nc2nc3ccc(-c4cc(OCC(F)(F)F)ncn4)cc3[nH]2)c1)N1CCN(C(=O)C2CC2(F)F)CC1 (single isomer, unassigned) [Example 119.05, ((1RS)-2,2-difluorocyclopropyl)(4-{(1R or 1S)-1-[2-({6-[6-(2,2,2-trifluoroethoxy)pyrimidin-4-yl]-1H-benzimidazol-2-yl}amino)pyridin-4-yl]ethyl}piperazin-1-yl)methanone] | 6.35 nM |
| CC(c1ccnc(Nc2nc3ccc(-c4cnn(CC5CC5)c4)c(Cl)c3[nH]2)c1)N1CCN(C(=O)OC(C)(C)C)CC1 (single isomer, unassigned) [Example 122.01, tert-butyl 4-{(1R or 1S)-1-[2-({7-chloro-6-[1-(cyclopropylmethyl)-1H-pyrazol-4-yl]-1H-benzimidazol-2-yl}amino)pyridin-4-yl]ethyl}piperazine-1-carboxylate] | 9.3 nM |
| CC(c1ccnc(Nc2nc3ccc(-c4cnn(CC5CC5)c4)c(Cl)c3[nH]2)c1)N1CCN(C(=O)CC(F)(F)F)CC1 (single isomer, unassigned) [Example 122.02, 1-(4-{(1R or 1S)-1-[2-({7-chloro-6-[1-(cyclopropylmethyl)-1H-pyrazol-4-yl]-1H-benzimidazol-2-yl}amino)pyridin-4-yl]ethyl}piperazin-1-yl)-3,3,3-trifluoropropan-1-one] | 1.2 nM |
| CC(c1ccnc(Nc2nc3ccc(-c4cnn(CC5CC5)c4)c(Cl)c3[nH]2)c1)N1CCN(C(=O)C2CC2)CC1 (single isomer, unassigned) [Example 122.03, (4-{(1R or 1S)-1-[2-({7-chloro-6-[1-(cyclopropylmethyl)-1H-pyrazol-4-yl]-1H-benzimidazol-2-yl}amino)pyridin-4-yl]ethyl}piperazin-1-yl)(cyclopropyl)methanone] | 1.1 nM |
| CC(c1ccnc(Nc2nc3ccc(-c4ccnn4C)cc3[nH]2)c1)N1CCN(C(=O)CC(F)(F)F)CC1 (single isomer, unassigned) [Example 123.02, 3,3,3-trifluoro-1-{4-[(1R or 1S)-1-(2-{[6-(1-methyl-1H-pyrazol-5-yl)-1H-benzimidazol-2-yl]amino}pyridin-4-yl)ethyl]piperazin-1-yl}propan-1-one] | 35 nM |
| CC(c1ccnc(Nc2nc3ccc(-c4ccnn4C)cc3[nH]2)c1)N1CCN(C(=O)C2CC2)CC1 (single isomer, unassigned) [Example 123.03, cyclopropyl{4-[(1R or 1S)-1-(2-{[6-(1-methyl-1H-pyrazol-5-yl)-1H-benzimidazol-2-yl]amino}pyridin-4-yl)ethyl]piperazin-1-yl}methanone] | 26 nM |
| CC(c1ccnc(Nc2nc3ccc(-c4cc(N5CC(C(F)(F)F)C5)ncn4)cc3[nH]2)c1)N1CCN(C(=O)[C@@H]2CC2(F)F)CC1 (single isomer, unassigned) [Example 164.05, ((1RS)-2,2-difluorocyclopropyl){4-[(1R or 1S)-1-[2-[(6-{6-[3-(trifluoromethyl)azetidin-1-yl]pyrimidin-4-yl}-1H-benzimidazol-2-yl)amino]pyridin-4-yl}ethyl]piperazin-1-yl}methanone] | 0.566 nM |
| CC(c1ccnc(Nc2nc3ccc(-c4cc(OCC(C)(F)F)ncn4)cc3[nH]2)c1)N1CCN(C(=O)CC(F)(F)F)CC1 (single isomer, unassigned) [Example 165.02, 1-(4-{(1R or 1S)-1-[2-({6-[6-(2,2-difluoropropoxy)pyrimidin-4-yl]-1H-benzimidazol-2-yl}amino)pyridin-4-yl]ethyl}piperazin-1-yl)-3,3,3-trifluoropropan-1-one] | 1.71 nM |
| CC(c1ccnc(Nc2nc3ccc(-c4cc(OCC(F)(F)C(F)(F)F)ncn4)cc3[nH]2)c1)N1CCN(C(=O)OC(C)(C)C)CC1 (single isomer, unassigned) [Example 166.01, tert-butyl 4-{(1R or 1S)-1-[2-({6-[6-(2,2,3,3,3-pentafluoropropoxy)pyrimidin-4-yl]-1H-benzimidazol-2-yl}amino)pyridin-4-yl]ethyl}piperazine-1-carboxylate] | 300 nM |

Further molecules by falling IC50, results first:

| IC50 | SMILES |
| --- | --- |
| 36 nM | CC(c1ccnc(Nc2nc3ccc(-c4ccnn4C)cc3[nH]2)c1)N1CCN(C(=O)OC(C)(C)C)CC1 (single isomer, unassigned) [Example 123.01, tert-butyl 4-[(1R or 1S)-1-(2-{[6-(1-methyl-1H-pyrazol-5-yl)-1H-benzimidazol-2-yl]amino}pyridin-4-yl)ethyl]piperazine-1-carboxylate] |
| 11 nM | CC(c1ccnc(Nc2nc3ccc(-c4cnn(CC5CC5)c4)c(F)c3[nH]2)c1)N1CCN(C(=O)OC(C)(C)C)CC1 (single isomer, unassigned) [Example 121.01, tert-butyl 4-{(1R or 1S)-1-[2-({6-[1-(cyclopropylmethyl)-1H-pyrazol-4-yl]-7-fluoro-1H-benzimidazol-2-yl}amino)pyridin-4-yl]ethyl}piperazine-1-carboxylate] |
| 5.48 nM | CC(c1ccnc(Nc2nc3ccc(-c4cc(N5CC(C(F)(F)F)C5)ncn4)cc3[nH]2)c1)N1CCN(C(=O)OC(C)(C)C)CC1 (single isomer, unassigned) [Example 164.01, tert-butyl 4-[(1R or 1S)-1-{2-[(6-{6-[3-(trifluoromethyl)azetidin-1-yl]pyrimidin-4-yl}-1H-benzimidazol-2-yl)amino]pyridin-4-yl}ethyl]piperazine-1-carboxylate] |
| 2.5 nM | CC(c1ccnc(Nc2nc3ccc(-c4cnn(CC5CC5)c4)c(F)c3[nH]2)c1)N1CCN(C(=O)CC(F)(F)F)CC1 (single isomer, unassigned) [Example 121.02] |
| 1.79 nM | CC(c1ccnc(Nc2nc3ccc(-c4cc(OCC(C)(F)F)ncn4)cc3[nH]2)c1)N1CCN(C(=O)C2CC2)CC1 (single isomer, unassigned) [Example 165.03, cyclopropyl(4-{(1R or 1S)-1-[2-({6-[6-(2,2-difluoropropoxy)pyrimidin-4-yl]-1H-benzimidazol-2-yl}amino)pyridin-4-yl]ethyl}piperazin-1-yl)methanone] |
| 1.6 nM | CC(c1ccnc(Nc2nc3ccc(-c4cnn(CC5CC5)c4)c(F)c3[nH]2)c1)N1CCN(C(=O)C2CC2)CC1 (single isomer, unassigned) [Example 121.03, cyclopropyl(4-{(1R or 1S)-1-[2-({6-[1-(cyclopropylmethyl)-1H-pyrazol-4-yl]-7-fluoro-1H-benzimidazol-2-yl}amino)pyridin-4-yl]ethyl}piperazin-1-yl)methanone] |
| 1.4 nM | CC(c1ccnc(Nc2nc3ccc(-c4cc(N5CCOCC5)ncn4)cc3[nH]2)c1)N1CCN(C(=O)CC(F)(F)F)CC1 (single isomer, unassigned) [Example 118.03, 3,3,3-trifluoro-1-(4-{(1R or 1S)-1-[2-({6-[6-(morpholin-4-yl)pyrimidin-4-yl]-1H-benzimidazol-2-yl}amino)pyridin-4-yl]ethyl}piperazin-1-yl)propan-1-one] |
| 0.943 nM | CC(c1ccnc(Nc2nc3ccc(-c4cc(N5CC(C(F)(F)F)C5)ncn4)cc3[nH]2)c1)N1CCN(C(=O)CC(F)(F)F)CC1 (single isomer, unassigned) [Example 164.02, 3,3,3-trifluoro-1-{4-[(1R or 1S)-1-{2-[(6-{6-[3-(trifluoromethyl)azetidin-1-yl]pyrimidin-4-yl}-1H-benzimidazol-2-yl)amino]pyridin-4-yl}ethyl]piperazin-1-yl}propan-1-one] |
| 0.832 nM | CC(c1ccnc(Nc2nc3ccc(-c4cc(N5CC(C(F)(F)F)C5)ncn4)cc3[nH]2)c1)N1CCN(C(=O)C2(C(F)(F)F)CC2)CC1 (single isomer, unassigned) [Example 164.04, {4-[(1R or 1S)-1-{2-[(6-{6-[3-(trifluoromethyl)azetidin-1-yl]pyrimidin-4-yl}-1H-benzimidazol-2-yl)amino]pyridin-4-yl}ethyl]piperazin-1-yl}[1-(trifluoromethyl)cyclopropyl]methanone] |
| 0.558 nM | CC(c1ccnc(Nc2nc3ccc(-c4cc(N5CC(C(F)(F)F)C5)ncn4)cc3[nH]2)c1)N1CCN(C(=O)C2CC2)CC1 (single isomer, unassigned) [Example 164.03, cyclopropyl{4-[(1R or 1S)-1-{2-[(6-{6-[3-(trifluoromethyl)azetidin-1-yl]pyrimidin-4-yl}-1H-benzimidazol-2-yl)amino]pyridin-4-yl}ethyl]piperazin-1-yl}methanone] |
